Experimental data reported in the NIST ThermoML archive (doi:10.1021/je050054u).

Conditions: Liquid, Closed cell (Static) method

CCF [fluoroethane]
Conditions	vapor or sublimation pressure [kPa]
235.69 K	101.5
235.74 K	101.7
235.79 K	101.9
235.84 K	102.2
235.89 K	102.4
235.94 K	102.6
236 K	102.9
236.09 K	103.4
237.11 K	108.3
238.07 K	113.3
240.11 K	124.1
242.12 K	135.4
244.1 K	147.6
245.09 K	153.8
247.09 K	167.1
249.1 K	181.5
251.07 K	196.3
253.11 K	212.7
255.11 K	229.7
257.13 K	247.8
259.11 K	267.6
261.11 K	288
263.12 K	309.5
264.11 K	320.7
265.1 K	332.4
266.12 K	344.5
267.13 K	356.6
268.13 K	369.1
269.13 K	382
270.13 K	395.3
271.13 K	408.8
272.15 K	422.9
273.12 K	436.7
274.11 K	451.2
275.11 K	466
276.14 K	481.8
277.14 K	497.5
278.17 K	513.9
279.14 K	529.9
280.13 K	546.6
281.13 K	563.9
282.16 K	581.9
283.14 K	599.6
285.18 K	636.5
287.13 K	675.1
288.13 K	695.2
290.14 K	737.5
292.01 K	777.9
294.03 K	824.2
296.04 K	871.8
298.07 K	921.9
300.05 K	972.9
302 K	1024.9
304.03 K	1081.4
306.12 K	1141.9
308.08 K	1200.9
310.32 K	1270.6
312.19 K	1330.5
314.18 K	1398.1
316.32 K	1472.8
316.33 K	1473.6
318.17 K	1539.8
320.14 K	1613.2
322.13 K	1690.2
324.12 K	1770.2
326.11 K	1852.2
328.13 K	1938.9
330.15 K	2027
332.15 K	2119.3
333.15 K	2167.4
334.16 K	2215.1
335.15 K	2263.9
336.15 K	2313.2
337.15 K	2363.2
338.16 K	2414.5
339.15 K	2465.8
340.16 K	2518.5
341.15 K	2572
342.15 K	2626.3
343.15 K	2681.7
344.14 K	2737.4
345.15 K	2794.3
346.15 K	2852.2
347.15 K	2910.8
348.15 K	2970.7
349.15 K	3030.8
350.15 K	3092.2
351.15 K	3154.5
352.15 K	3218
353.14 K	3282
354.15 K	3347.6
355.15 K	3414.2
356.15 K	3481.2
357.14 K	3549.5
358.14 K	3619.1
359.14 K	3689.1
360.15 K	3761.3
361.15 K	3834
362.16 K	3908
363.14 K	3982.2
364.14 K	4058.4
364.15 K	4060.2
365.14 K	4138
366.15 K	4216.8
367.15 K	4295.8
368.16 K	4376.8
369.14 K	4460.1
370.14 K	4543.5
371.14 K	4627.6
372.14 K	4713.9
